Assay results taken from ChEMBL document CHEMBL1201862, “PubChem BioAssay data set” (2004).
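Dose response: 5 concentrations. Exposure: 48 h. Format: 96-well plates. Endpoint: linear interpolation; highest concentration if not reached. Here, GI50 denotes the concentration required for 50% inhibition of growth.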 Activity calls are given as the source filed them. Rule as the data show it: active = GI50 up to about 1.1 µM and inactive = higher.

Assays:
Assay in all cases: growth of human tumour cells (NCI), 48 h
786-0 = system: 786-0
A498 = system: A498
A549 = system: A549
ACHN = system: ACHN
CAKI-1 = system: CAKI-1
CCRF-CEM = system: CCRF-CEM
COLO 205 = system: COLO 205
DU-145 = system: DU-145
EKVX = system: EKVX
HCC 2998 = system: HCC 2998
HCT-116 = system: HCT-116
HCT-15 = system: HCT-15
HL-60 = system: HL-60
HOP-62 = system: HOP-62
HOP-92 = system: HOP-92
HT-29 = system: HT-29
Hs-578T = system: Hs-578T
IGROV-1 = system: IGROV-1
K562 = system: K562
KM12 = system: KM12
LOX IMVI = system: LOX IMVI
M14 = system: M14
MDA-MB-231 = system: MDA-MB-231
MDA-MB-435 = system: MDA-MB-435
MDA-N = system: MDA-N
MOLT-4 = system: MOLT-4
Malme-3M = system: Malme-3M
NCI-H226 = system: NCI-H226
NCI-H23 = system: NCI-H23
NCI-H460 = system: NCI-H460
NCI-H522 = system: NCI-H522
NCI/ADR-RES = system: NCI/ADR-RES
OVCAR-3 = system: OVCAR-3
OVCAR-4 = system: OVCAR-4
OVCAR-5 = system: OVCAR-5
OVCAR-8 = system: OVCAR-8
PC-3 = system: PC-3
RPMI-8226 = system: RPMI-8226
RXF 393 = system: RXF 393
SF-268 = system: SF-268
SF-295 = system: SF-295
SF-539 = system: SF-539
SK-MEL-28 = system: SK-MEL-28
SK-MEL-2 = system: SK-MEL-2
SK-MEL-5 = system: SK-MEL-5
SK-OV-3 = system: SK-OV-3
SN12C = system: SN12C
SNB-19 = system: SNB-19
SNB-75 = system: SNB-75
SR = system: SR
SW-620 = system: SW-620
T47D = system: T47D
U-251 = system: U-251
UACC-257 = system: UACC-257
UACC-62 = system: UACC-62
UO-31 = system: UO-31

**Q.** `CN(C)/N=C(/CC(O)(C(F)(F)F)C(F)(F)F)c1ccc([N+](=O)[O-])cc1` was tested. Which GI50 (786-0) did it give?
**A.** The GI50 was > 100 µM (inactive).

**Q.** And the GI50 (A498)?
**A.** The GI50 was > 100 µM (inactive).

**Q.** What about the GI50 (A549) of the same molecule?
**A.** Its GI50 is > 100 µM (inactive).

**Q.** What about the GI50 (ACHN) of the same molecule?
**A.** The GI50 was > 100 µM (inactive).

**Q.** What about the GI50 (CAKI-1) of the same molecule?
**A.** Its GI50 is > 100 µM (inactive).

**Q.** What about the GI50 (CCRF-CEM) of the same molecule?
**A.** Its GI50 is > 100 µM (inactive).

**Q.** And the GI50 (COLO 205)?
**A.** The GI50 was > 100 µM (inactive).

**Q.** And the GI50 (DU-145)?
**A.** Its GI50 is > 100 µM (inactive).

**Q.** What about the GI50 (EKVX) of the same molecule?
**A.** The GI50 was > 100 µM (inactive).

**Q.** And the GI50 (HCC 2998)?
**A.** The GI50 was > 100 µM (inactive).

**Q.** What about the GI50 (HCT-116) of the same molecule?
**A.** Its GI50 is > 100 µM (inactive).

**Q.** What about the GI50 (HCT-15) of the same molecule?
**A.** Its GI50 is greater than 100 µM.

**Q.** And the GI50 (HL-60)?
**A.** The GI50 was > 100 µM (inactive).

**Q.** And the GI50 (HOP-62)?
**A.** Its GI50 is > 100 µM (inactive).

**Q.** And the GI50 (HOP-92)?
**A.** The GI50 was > 100 µM (inactive).

**Q.** What about the GI50 (HT-29) of the same molecule?
**A.** The GI50 was > 100 µM (inactive).

**Q.** What about the GI50 (Hs-578T) of the same molecule?
**A.** The GI50 was > 100 µM (inactive).

**Q.** And the GI50 (IGROV-1)?
**A.** Its GI50 is 80.5 µM (inactive).

**Q.** What about the GI50 (K562) of the same molecule?
**A.** Its GI50 is > 100 µM (inactive).

**Q.** What about the GI50 (KM12) of the same molecule?
**A.** The GI50 was > 100 µM (inactive).

**Q.** What about the GI50 (LOX IMVI) of the same molecule?
**A.** Its GI50 is > 100 µM (inactive).

**Q.** What about the GI50 (M14) of the same molecule?
**A.** Its GI50 is > 100 µM (inactive).

**Q.** And the GI50 (MDA-MB-231)?
**A.** The GI50 was > 100 µM (inactive).

**Q.** What about the GI50 (MDA-MB-435) of the same molecule?
**A.** The GI50 was > 100 µM (inactive).

**Q.** What about the GI50 (MDA-N) of the same molecule?
**A.** The GI50 was > 100 µM (inactive).

**Q.** And the GI50 (MOLT-4)?
**A.** Its GI50 is > 100 µM (inactive).

**Q.** What about the GI50 (Malme-3M) of the same molecule?
**A.** The GI50 was > 100 µM (inactive).

**Q.** What about the GI50 (NCI-H226) of the same molecule?
**A.** Its GI50 is > 100 µM (inactive).

**Q.** And the GI50 (NCI-H23)?
**A.** Its GI50 is > 100 µM (inactive).

**Q.** What about the GI50 (NCI-H460) of the same molecule?
**A.** Its GI50 is > 100 µM (inactive).

**Q.** What about the GI50 (NCI-H522) of the same molecule?
**A.** Its GI50 is > 100 µM (inactive).

**Q.** What about the GI50 (NCI/ADR-RES) of the same molecule?
**A.** The GI50 was > 100 µM (inactive).

**Q.** What about the GI50 (OVCAR-3) of the same molecule?
**A.** The GI50 was > 100 µM (inactive).

**Q.** And the GI50 (OVCAR-4)?
**A.** The GI50 was > 100 µM (inactive).

**Q.** What about the GI50 (OVCAR-5) of the same molecule?
**A.** The GI50 was > 100 µM (inactive).

**Q.** What about the GI50 (OVCAR-8) of the same molecule?
**A.** The GI50 was > 100 µM (inactive).

**Q.** And the GI50 (PC-3)?
**A.** The GI50 was > 100 µM (inactive).

**Q.** And the GI50 (RPMI-8226)?
**A.** The GI50 was > 100 µM (inactive).

**Q.** And the GI50 (RXF 393)?
**A.** Its GI50 is > 100 µM (inactive).

**Q.** And the GI50 (SF-268)?
**A.** The GI50 was > 100 µM (inactive).

**Q.** What about the GI50 (SF-295) of the same molecule?
**A.** The GI50 was > 100 µM (inactive).

**Q.** And the GI50 (SF-539)?
**A.** Its GI50 is > 100 µM (inactive).

**Q.** And the GI50 (SK-MEL-28)?
**A.** Its GI50 is > 100 µM (inactive).

**Q.** What about the GI50 (SK-MEL-2) of the same molecule?
**A.** The GI50 was > 100 µM (inactive).

**Q.** And the GI50 (SK-MEL-5)?
**A.** The GI50 was > 100 µM (inactive).

**Q.** What about the GI50 (SK-OV-3) of the same molecule?
**A.** Its GI50 is > 100 µM (inactive).

**Q.** What about the GI50 (SN12C) of the same molecule?
**A.** The GI50 was > 100 µM (inactive).

**Q.** And the GI50 (SNB-19)?
**A.** Its GI50 is > 100 µM (inactive).

**Q.** What about the GI50 (SNB-75) of the same molecule?
**A.** Its GI50 is > 100 µM (inactive).

**Q.** And the GI50 (SR)?
**A.** The GI50 was > 100 µM (inactive).

**Q.** And the GI50 (SW-620)?
**A.** Its GI50 is > 100 µM (inactive).

**Q.** And the GI50 (T47D)?
**A.** The GI50 was > 100 µM (inactive).

**Q.** And the GI50 (U-251)?
**A.** The GI50 was > 100 µM (inactive).

**Q.** And the GI50 (UACC-257)?
**A.** Its GI50 is > 100 µM (inactive).

**Q.** And the GI50 (UACC-62)?
**A.** The GI50 was > 100 µM (inactive).

**Q.** What about the GI50 (UO-31) of the same molecule?
**A.** Its GI50 is 98.6 µM (inactive).
